pIC50: −log10 of the molar value. Read-outs that look alike come from different tables or passages of the source.
System: cancer cell lines
Experiment: Cancer cell proliferation activity (CellTiterGlo, 72 h)
Format: cell-based
Settings: 72 h, 72 h, read-out: IC50
Method: Dose response relationships on cell proliferation was assessed for representative Compounds of the Disclosure on cancer cell lines. Briefly, compound treatment of cells started one day after seeding with a final DMSO concentration of 0.1%, and was performed by nanodrop-dispensing using a Tecan Dispenser. 0.1% DMSO (solvent) and Staurosporine (10 μM) served as high control (100% viability) and low control (0% viability), respectively.
Cells were cultured in the appropriate media. For the assays, cells were seeded in white cell culture-treated flat and clear bottom multiwell plates and incubated at 37° C. overnight before compound was added. After incubation for 72 h at 37° C. at 5% or 10% CO2 dependent on the medium, cell plates were equilibrated to room temperature for one hour, CellTiterGlo reagent (Promega) was added and luminescence was measured approximately an hour later using a luminometer.
Raw data were converted into percent cell viability relative to the high and low control, which were set to 100% and 0%, respectively.
The IC50 values are summarized in Tables 9A-1, Table 10A, and Table 10B.

pIC50 (5637 cell line (bladder)): 6.66
pIC50 (AS49 cell line (lung)): 6.62
pIC50 (CLS439 cell line (bladder)): 6.21
pIC50 (HS729 cell line (muscle)): 6.68
pIC50 (JAR cell line (placenta)): 7.30
pIC50 (Homo sapiens, 22Rv1, 72 h, 22RV1 cell line (prostate)): 6.66
pIC50 (Homo sapiens, 786-0, 72 h, 786O cell line (kidney)): 6.96
pIC50 (Homo sapiens, A204, 72 h, A204 cell line (muscle)): 7.15
pIC50 (Homo sapiens, A673, 72 h, A673 cell line (bone)): 6.24
pIC50 (Homo sapiens, A2780, 72 h, A2780 cell line (ovary)): 6.70
pIC50 (Homo sapiens, A-375, 72 h, A375 cell line (skin)): 6.85
pIC50 (Homo sapiens, A-431, 72 h, A431 cell line (skin)): 7.15
pIC50 (Homo sapiens, ACHN, ACHN cell line (kidney)): 6.55
pIC50 (Homo sapiens, ASPC1, 72 h, ASPC1 cell line (pancreas)): 7.30
pIC50 (Homo sapiens, BT-20, 72 h, BT20 cell line (breast)): 7.00
pIC50 (Homo sapiens, BXPC-3, 72 h, BXPC3 cell line (pancreas)): 6.68
pIC50 (Homo sapiens, C-33-A, C33A cell line (cervical)): 6.72
pIC50 (Homo sapiens, CAKI-1, 72 h, CAKI1 cell line (kidney)): 8.00
pIC50 (Homo sapiens, COLO 205, 72 h, COLO205 cell line (colon)): 6.59
pIC50 (Homo sapiens, COLO-678, 72 h, COLO678 cell line (colon)): 6.41
pIC50 (Homo sapiens, Ca-Ski, CASKI cell line (cervical)): 7.22
pIC50 (Homo sapiens, Caco-2, 72 h, CACO2 cell line (colon)): 6.55
pIC50 (Homo sapiens, Calu-6, 72 h, CALU6 cell line (lung)): 7.22
pIC50 (Homo sapiens, DLD-1, 72 h, DLD1 cell line (colon)): 6.59
pIC50 (Homo sapiens, DU-145, 72 h, DU145 cell line (prostate)): 7.70
pIC50 (Homo sapiens, EFO-21, 72 h, EFO21 cell line (ovary)): 6.89
pIC50 (Homo sapiens, EJ-28, 72 h, EJ28 cell line (bladder)): 7.05
pIC50 (Homo sapiens, Granta-519, 72 h, GRANTA-519 cell line (hematological)): 6.25
pIC50 (Homo sapiens, HCT-15, 72 h, HCT15 cell line (colon)): 6.52
pIC50 (Homo sapiens, HCT-116, 72 h, HCT116 cell line (colon)): 6.64
pIC50 (Homo sapiens, HEK293, 72 h, HEK293 cell line (kidney)): 6.85
pIC50 (Homo sapiens, HL-60, 72 h, HL-60 cell line (hematological)): 7.15
pIC50 (Homo sapiens, HT-29, 72 h, HT29 cell line (colon)): 6.80
pIC50 (Homo sapiens, HT-1080, 72 h, HT1080 cell line (connective tissue)): 6.14
pIC50 (Homo sapiens, HeLa, HELA cell line (cervical)): 6.96
pIC50 (Homo sapiens, HepG2, 72 h, HEPG2 cell line (liver)): 6.96
pIC50 (Homo sapiens, Hs-578T, HS578T cell line, breast): 7.05
pIC50 (Homo sapiens, IGROV-1, 72 h, IGROV1 cell line (ovary)): 7.30
pIC50 (Homo sapiens, IMR-90, 72 h, IMR90 cell line, lung): 6.82
pIC50 (Homo sapiens, J82, 72 h, J82 cell line (bladder)): 6.82
pIC50 (Homo sapiens, JEG-3, 72 h, JEG3 cell line (placenta)): 7.40
pIC50 (Homo sapiens, JIMT-1, 72 h, JIMT1 cell line (breast)): 7.70
pIC50 (Homo sapiens, K562, 72 h, K-562 cell line (hematological)): 6.30
pIC50 (Homo sapiens, Kasumi 1, 72 h, KASUMI-1 cell line (hematological)): 7.70
pIC50 (Homo sapiens, L-363, 72 h, L-363 cell line (hematological)): 7.40
pIC50 (Homo sapiens, LoVo, LOVO cell line (colon)): 7.40
pIC50 (Homo sapiens, MCF7, 72 h, MCF7 cell line (breast)): 5.62
pIC50 (Homo sapiens, MDA-MB-231, 72 h, MDAMB231 cell line (breast)): 6.24
pIC50 (Homo sapiens, MDA-MB-435, 72 h, MDAMB435 cell line (skin)): 6.60
pIC50 (Homo sapiens, MDA-MB-436, 72 h, MDAMB436 cell line (breast)): 7.15
pIC50 (Homo sapiens, MDA-MB-468, 72 h, MDAMB468 cell line (breast)): 7.00
pIC50 (Homo sapiens, MG-63, 72 h, MG63 cell line (bone)): 5.63
pIC50 (Homo sapiens, MHH-ES-1, 72 h, MHHES1 cell line (bone)): 6.92
pIC50 (Homo sapiens, MIA PaCa-2, 72 h, MIAPACA2 cell line (pancreas)): 5.56
pIC50 (Homo sapiens, MINO, MINO cell line (hematological)): 7.52
pIC50 (Homo sapiens, MV4-11, 72 h, MV4-11 cell line (hematological)): 7.52
pIC50 (Homo sapiens, NCI-H23, 72 h, NCI-H23 cell line (lung)): 7.15
pIC50 (Homo sapiens, NCI-H82, 72 h, NCIH82 cell line (lung)): 7.15
pIC50 (Homo sapiens, NCI-H292, 72 h, NCIH292 cell line (lung)): 6.33
pIC50 (Homo sapiens, NCI-H460, 72 h, NCIH460 cell line (lung)): 6.82
pIC50 (Homo sapiens, OVCAR-3, 72 h, OVCAR3 cell line (ovary)): 7.10
pIC50 (Homo sapiens, OVCAR-4, 72 h, OVCAR4 cell line (ovary)): 6.89
pIC50 (Homo sapiens, PANC-1, 72 h, PANC1 cell line (pancreas)): 5.55
pIC50 (Homo sapiens, PC-3, 72 h, PC3 cell line (prostate)): 6.89
pIC50 (Homo sapiens, PLC-PRF-5, 72 h, PLCPRF5 cell line (liver)): 6.20
pIC50 (Homo sapiens, Panc1005, 72 h, PANC1005 cell line (pancreas)): 6.89
pIC50 (Homo sapiens, RD, RD cell line (muscle)): 6.72
pIC50 (Homo sapiens, Ramos, RAMOS cell line (hematological)): 7.10
pIC50 (Homo sapiens, SAOS-2, 72 h, SAOS2 cell line (bone)): 7.00
pIC50 (Homo sapiens, SF-268, 72 h, SF268 cell line (brain)): 6.17
pIC50 (Homo sapiens, SF-295, 72 h, SF295 cell line (brain)): 6.36
pIC50 (Homo sapiens, SK-BR-3, 72 h, SKBR3 cell line (breast)): 8.00
pIC50 (Homo sapiens, SK-HEP1, 72 h, SKHEP1 cell line (liver)): 6.72
pIC50 (Homo sapiens, SK-LMS-1, 72 h, SKLMS1 cell line (uterus)): 7.05
pIC50 (Homo sapiens, SK-MEL-5, 72 h, SKMEL5 cell line, skin): 6.38
pIC50 (Homo sapiens, SK-MEL-28, 72 h, SKMEL28 cell line (skin)): 6.82
pIC50 (Homo sapiens, SK-N-AS, SKNAS cell line (brain)): 6.80
pIC50 (Homo sapiens, SK-N-SH, SKNSH cell line (brain)): 6.85
pIC50 (Homo sapiens, SK-OV-3, 72 h, SKOV3 cell line (ovary)): 7.00
pIC50 (Homo sapiens, SNB-75, 72 h, SNB75 cell line (brain)): 6.62
pIC50 (Homo sapiens, SU-DHL10, 72 h, SU-DHL-10 cell line (hematological)): 6.70
pIC50 (Homo sapiens, SU-DHL-6, 72 h, SU-DHL-6 cell line (hematological)): 7.30
pIC50 (Homo sapiens, SW-620, 72 h, SW620 cell line (colon)): 7.05
pIC50 (Homo sapiens, T-24, 72 h, T24 cell line (bladder)): 6.85
pIC50 (Homo sapiens, TE-671, 72 h, TE671 cell line (muscle)): 6.21
pIC50 (Homo sapiens, THP-1, 72 h, THP-1 cell line (hematological)): 6.01
pIC50 (Homo sapiens, U2OS, U2OS cell line (bone)): 7.10
pIC50 (Homo sapiens, U-87 MG, U87MG cell line (brain)): 6.42
pIC50 (Homo sapiens, UMUC3, 72 h, UMUC3 cell line (bladder)): 6.34
pIC50 (Homo sapiens, UO-31, 72 h, UO31 cell line (kidney)): 7.30
pIC50 (Homo sapiens, WSU-NHL, WSU-NHL cell line (hematological)): 7.40
pIC50 (MT-3, 72 h, MT3 cell line (breast)): 7.00
pIC50 (NCI-H358M, NCIH358M cell line (lung)): 6.82
pIC50 (PBMC, PBMC (hematological)): < 4.30
pIC50 (RD-ES, RDES cell line (bone)): 7.22
SMILES: CC[C@]1(CO)O[C@@H](n2cnc3c(N)nc(F)nc32)[C@H](O)[C@@H]1O [Cpd. No. 173, (2R,3S,4R,5R)-5-(6-amino-2-fluoro-9H-purin-9-yl)-2-ethyl-2-(hydroxymethyl)tetrahydrofuran-3,4-diol]
